The results in this text go back to PubChem BioAssay (NCI).

Test systems include M14 melanoma; SK-MEL-5 melanoma; HCT-15 colon; HOP-62 NSCLC; BT-549 breast; DU-145 prostate; ACHN renal; SNB-75 CNS; OVCAR-3 ovarian; MDA-MB-435.
What all share (experiment): NCI anticancer screen, dose series, 48 h

Each structure is given as a SMILES string. Several values for one entry are separate records, joined by “and”; a condition that tells them apart may be missing. Equal values may be shown once.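 Cells were grown in 96-well plates and exposed to each compound for 48 hours at five concentrations; endpoints were interpolated linearly between bracketing concentrations, or set to the highest concentration if not reached. The concentration for 50% growth inhibition is given as GI50. Definition used: TGI = concentration required for complete inhibition of growth.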 A value given as a limit tells only on which side of the number the result lay.

In the case of `C(=N/N(Cc1ccccc1)Cc1ccccc1)/c1ccccc1`, the GI50 is 90.1 µM in the assay with M14 melanoma; 55.4 µM in the assay on SK-MEL-5 melanoma; more than 100 µM in the assay with HCT-15 colon; more than 100 µM in the assay with HOP-62 NSCLC; more than 100 µM in the assay with BT-549 breast; more than 100 µM in the assay with DU-145 prostate. Also, the GI50 was more than 100 µM with ACHN renal, more than 100 µM in the assay with SNB-75 CNS, more than 100 µM in the assay on OVCAR-3 ovarian and 77.3 µM with MDA-MB-435. Further, the TGI in the assay with M14 melanoma, in the assay on SK-MEL-5 melanoma, in the assay with HCT-15 colon, in the assay with HOP-62 NSCLC, in the assay with BT-549 breast and in the assay with DU-145 prostate was more than 100 µM each time. In addition, the TGI with ACHN renal, in the assay with SNB-75 CNS, in the assay with OVCAR-3 ovarian and in the assay with MDA-MB-435 was more than 100 µM each time.
Turning to `COc1ccc(N(CC(=O)NCCC[Te]c2ccccc2)C(=O)CNC(=O)OC(C)(C)C)cc1`, the GI50 in the assay on M14 melanoma was 3.53 µM; in the assay on SK-MEL-5 melanoma, 3.13 µM; in the assay with HCT-15 colon, 3.15 µM; in the assay on HOP-62 NSCLC, 2.19 µM; with BT-549 breast, 1.68 µM; in the assay on DU-145 prostate it was 2.91 µM. Also, the GI50 with ACHN renal is 3.12 µM; in the assay on SNB-75 CNS it was 2.07 µM; in the assay on OVCAR-3 ovarian, 3 µM; with MDA-MB-435, 3.31 µM. In addition, the TGI stood at 10.6 µM with M14 melanoma; 9.13 µM in the assay with SK-MEL-5 melanoma; 11.7 µM in the assay with HCT-15 colon; 4.73 µM with HOP-62 NSCLC; 4.86 µM with BT-549 breast; 7.6 µM with DU-145 prostate. Moreover, the TGI in the assay on ACHN renal is 8.86 µM; in the assay with SNB-75 CNS it was 7.43 µM; in the assay with OVCAR-3 ovarian, 7.88 µM; in the assay on MDA-MB-435, 13.5 µM.
Turning to `Oc1c(I)cc(I)c2cccnc12`, the GI50 is 5.27 µM with M14 melanoma; 2.4 µM in the assay on SK-MEL-5 melanoma; 4.29 µM with HCT-15 colon; 4.85 µM in the assay with HOP-62 NSCLC; 0.833 µM in the assay with BT-549 breast; 8.25 µM in the assay with DU-145 prostate. Moreover, the GI50 in the assay with ACHN renal was 4.19 µM; in the assay with SNB-75 CNS it was 15.3 µM; in the assay with OVCAR-3 ovarian, 2.42 µM; in the assay with MDA-MB-435, 4.41 µM. Also, the TGI in the assay with M14 melanoma was 23.7 µM; in the assay with SK-MEL-5 melanoma, 16.5 µM; in the assay on HCT-15 colon it was more than 100 µM; in the assay with HOP-62 NSCLC, 26.8 µM; in the assay with BT-549 breast it was 33.9 µM; with DU-145 prostate, 58 µM. Further, the TGI is 26.8 µM in the assay with ACHN renal, more than 100 µM in the assay with SNB-75 CNS, 6.5 µM with OVCAR-3 ovarian and more than 100 µM with MDA-MB-435.
For `COC(=O)CCCCC(=O)c1c(C)[nH]c(/C=C2\N=C(c3ccc[nH]3)C=C2OC)c1C`, the GI50 was 0.289 µM in the assay with M14 melanoma; 0.357 µM in the assay on SK-MEL-5 melanoma; 0.359 µM in the assay on HCT-15 colon; 0.475 µM in the assay on HOP-62 NSCLC; 0.418 µM in the assay with BT-549 breast; 0.482 µM in the assay on DU-145 prostate. Further, the GI50 in the assay on ACHN renal is 1 µM; in the assay on SNB-75 CNS it was 0.851 µM; with OVCAR-3 ovarian it was 0.88 µM; with MDA-MB-435, 0.328 µM. Further, the TGI with M14 melanoma was determined as 0.952 µM; in the assay with SK-MEL-5 melanoma, 1.37 µM; in the assay on HCT-15 colon, 1.4 µM; in the assay on HOP-62 NSCLC it was 1.87 µM; in the assay with BT-549 breast, 1.85 µM; with DU-145 prostate, 1.81 µM. Further, the TGI in the assay on ACHN renal was 2.32 µM; in the assay on SNB-75 CNS, 2.24 µM; with OVCAR-3 ovarian it was 2.24 µM; in the assay with MDA-MB-435, 1.22 µM.
`O=C(O)Cc1cccnc1`: the TGI in the assay on M14 melanoma, in the assay with SK-MEL-5 melanoma, with HCT-15 colon, with HOP-62 NSCLC, with BT-549 breast and with DU-145 prostate was more than 100 µM throughout. For the same compound, the TGI with ACHN renal, in the assay on SNB-75 CNS, in the assay on OVCAR-3 ovarian and in the assay on MDA-MB-435 was more than 100 µM in each case.
With `COC(=O)[C@H]1CCCN1C(=O)[C@H]1CCCN1C(=O)[C@@H](Cc1c[nH]c2ccccc12)NC(=S)Nc1cc(C(F)(F)F)cc(C(F)(F)F)c1`, the GI50 in the assay with M14 melanoma is 2.04 µM; with SK-MEL-5 melanoma, 1.7 µM; in the assay on HCT-15 colon, 1.66 µM; in the assay on HOP-62 NSCLC, 2.01 µM; in the assay with BT-549 breast it was 2.47 µM; in the assay with DU-145 prostate, 2.6 µM. Besides, the GI50 in the assay on ACHN renal was 2.51 µM; in the assay with SNB-75 CNS it was 1.52 µM; in the assay with OVCAR-3 ovarian, 1.69 µM; with MDA-MB-435 it was 1.8 µM. Further, the TGI in the assay with M14 melanoma was found to be 4.19 µM; in the assay on SK-MEL-5 melanoma it was 3.23 µM; in the assay with HCT-15 colon it was 3.13 µM; in the assay on HOP-62 NSCLC, 3.83 µM; with BT-549 breast it was 5.59 µM; in the assay with DU-145 prostate it was 6.79 µM. Besides, the TGI in the assay on ACHN renal amounted to 7.78 µM; with SNB-75 CNS it was 5.82 µM; in the assay on OVCAR-3 ovarian, 3.41 µM; in the assay on MDA-MB-435, 3.58 µM.
As for `CC(C)(Br)C(=O)C(Br)Br`, the GI50 in the assay with M14 melanoma was 5.42 µM; in the assay on SK-MEL-5 melanoma, 5.55 µM; with HCT-15 colon, 4.88 µM; with HOP-62 NSCLC, 59.7 µM; with ACHN renal, 5.34 µM; in the assay with SNB-75 CNS, 5.04 µM. Besides, the GI50 in the assay with OVCAR-3 ovarian was 5.76 µM. Also, the TGI in the assay on M14 melanoma is 7.07 µM and 9.69 µM; with SK-MEL-5 melanoma, 25 µM and 9.92 µM; with HCT-15 colon, > 21.9 µM and 9.57 µM; in the assay with HOP-62 NSCLC, > 56.5 µM and 104 µM; in the assay on BT-549 breast, 9.13 µM; in the assay with DU-145 prostate, 70.6 µM. Further, the TGI in the assay on ACHN renal was 22.5 µM and 9.58 µM; in the assay on SNB-75 CNS it was 26.7 µM and 9.38 µM; in the assay with OVCAR-3 ovarian it was 18.6 µM and 10.6 µM; with MDA-MB-435, 9.98 µM.
Regarding `O=C(Nc1cccc(-n2cc(-c3ccncc3)c(-c3cc(O)cc(Cl)c3)n2)c1)c1cc(C(F)(F)F)cc(C(F)(F)F)c1`, the GI50 in the assay with M14 melanoma is 3.01 µM; with SK-MEL-5 melanoma it was 2.61 µM; in the assay with HCT-15 colon, 2.6 µM; with HOP-62 NSCLC, 9.82 µM; with BT-549 breast it was 4.65 µM; in the assay on DU-145 prostate, 5.19 µM. Besides, the GI50 in the assay with ACHN renal is 4.98 µM; in the assay with SNB-75 CNS it was 2.8 µM; in the assay with OVCAR-3 ovarian it was 3.28 µM; in the assay on MDA-MB-435 it was 3.16 µM. For the same compound, the TGI in the assay on M14 melanoma is more than 100 µM; in the assay on SK-MEL-5 melanoma, 8.67 µM; in the assay with HCT-15 colon, 14.7 µM; with HOP-62 NSCLC, more than 100 µM; in the assay with BT-549 breast it was 46.6 µM; in the assay on DU-145 prostate, more than 100 µM. The TGI was more than 100 µM in the assay on ACHN renal, more than 100 µM with SNB-75 CNS, 25.7 µM with OVCAR-3 ovarian and more than 100 µM with MDA-MB-435.
Regarding `O=C(/C=C/c1cccc(O)c1)c1cccc(-n2cc(-c3ccccc3)[nH]c2=O)c1`, the GI50 in the assay on M14 melanoma was 2.89 µM; with SK-MEL-5 melanoma, 2.41 µM; in the assay with HCT-15 colon, 2.94 µM; in the assay with HOP-62 NSCLC it was 4.27 µM; with BT-549 breast it was 3.57 µM; with DU-145 prostate, 3.15 µM. In addition, the GI50 is 2.72 µM in the assay with ACHN renal, 5.7 µM in the assay on SNB-75 CNS, 2.58 µM with OVCAR-3 ovarian and 2.53 µM in the assay with MDA-MB-435. Further, the TGI is 6.59 µM with SK-MEL-5 melanoma; 10.3 µM in the assay on HCT-15 colon; more than 25.9 µM in the assay with HOP-62 NSCLC; 9.79 µM in the assay on BT-549 breast; 10.3 µM in the assay with DU-145 prostate; 7.4 µM with ACHN renal. The TGI in the assay on SNB-75 CNS is 18.2 µM; in the assay on OVCAR-3 ovarian, 6.19 µM; in the assay on MDA-MB-435, 9.64 µM.
In the case of `O=C(CCCCCCN1CC(=O)N2[C@@H](c3ccc(Cl)c(Cl)c3)c3[nH]c4ccccc4c3C[C@H]2C1=O)NO`, the GI50 in the assay on M14 melanoma is 4.22 µM; in the assay on SK-MEL-5 melanoma it was 4.73 µM; in the assay with HCT-15 colon it was 10 µM; in the assay with HOP-62 NSCLC, 3.88 µM; in the assay on BT-549 breast, 4.41 µM; in the assay on DU-145 prostate it was 4.01 µM. Further, the GI50 was 5.34 µM in the assay with ACHN renal, 0.832 µM in the assay on SNB-75 CNS, 1.62 µM in the assay on OVCAR-3 ovarian and 3.13 µM in the assay with MDA-MB-435. In addition, the TGI was 14.5 µM in the assay with M14 melanoma; 9.29 µM in the assay on SK-MEL-5 melanoma; more than 33.3 µM with HCT-15 colon; 9.35 µM with HOP-62 NSCLC; 14.2 µM with BT-549 breast; 15.3 µM in the assay on DU-145 prostate. Further, the TGI was found to be 12.9 µM in the assay on ACHN renal, 7 µM in the assay with SNB-75 CNS, 6.57 µM with OVCAR-3 ovarian and 8.06 µM in the assay on MDA-MB-435.
With `Cc1cc(N=Nc2ccccc2C)ccc1N`, the GI50 in the assay on M14 melanoma is 16.1 µM; in the assay on SK-MEL-5 melanoma, 14.1 µM; in the assay with HOP-62 NSCLC, 15.2 µM; in the assay with DU-145 prostate it was 9.35 µM; in the assay with ACHN renal, 14.7 µM; with SNB-75 CNS it was 4.1 µM. Also, the GI50 in the assay on MDA-MB-435 is 12.7 µM. Besides, the TGI is 24.9 µM and 38.7 µM with M14 melanoma; 29.2 µM and 27.4 µM in the assay on SK-MEL-5 melanoma; 25.2 µM and 33.4 µM in the assay with HCT-15 colon; 19.2 µM and 36.4 µM with HOP-62 NSCLC; 23.2 µM with BT-549 breast; 27.2 µM in the assay on DU-145 prostate. In addition, the TGI is 28.7 µM and 45.8 µM with ACHN renal; 28.1 µM and 31.9 µM in the assay on SNB-75 CNS; 21.8 µM and 23.7 µM in the assay on OVCAR-3 ovarian; 49.3 µM and 46 µM in the assay with MDA-MB-435.
